Assays:
[1] = system: Calreticulin; assay: Calreticulin release (ER to plasma membrane translocation) screen, Nano-Glo HiBiT extracellular detection; assay type: cell-based; settings: Homo sapiens, MDA-MB-231, MDA-MB-231 cells stably expressing Calreticulin-HiBiT; extracellular luminescence; read-out: CalR EC50
Protocol: (§1) Construction of pBiT3.1-Calreticulin Plasmid Calreticulin derived from pCMV6-AC plasmid (ref. SC320287, Origene) was amplified by PCR using the following set of primers: Seq ID No 3: forward, 5′-[…]-3′; Seq ID No 4: reverse, 5′-[…]-3′. The PCR fragment was subsequently digested by EcoRI and XhoI (R3101S and R0146S respectively, New England Biolabs) and inserted between the EcoRI and XhoI sites in the plasmid pBiT3.1-C(ref. N237A, Promega). The resulting plasmid (pBiT3.1-Calreticulin) was grown in NEB10-beta competent E. coli (ref. C3019I, New England Biolabs) and purified using the NucleoBond Xtra Midi Kit (ref. 740410, Macherey-Nagel).
Construction of Calreticulin Reporter Cell Line
(§2) pBiT3.1-Calreticulin was transfected in MDA-MB-231 cells (ref. ATCC HTB-2) using Lipofectamine 2000 reagent (ref. 11668, Invitrogen). Transfected cells were selected for blasticidin resistance (15 μg/ml, ref. Al 113903 Gibco) in medium containing DMEM 1× (ref. 1995065, Gibco) with 1% penicillin and streptomycin, and 10% fetal bovine serum.
Screen for Calreticulin-ER to Plasma Membrane Translocating Drugs
(§3) MDA-MB-231 cells stably expressing Calreticulin-HiBiT (10^4 cells/well) were seeded into white 96-well plates (ref.3917, Corning) and allowed to recover for 24h. […] Mitoxantrone dihydrochloride (ref. M6545, Sigma-Aldrich) was used as a positive control. Extracellular translocation of Calreticulin was measured using the Nano-Glo HiBiT extracellular detection system (ref. N2422, Promega). Nano-Glo HiBiT Extracellular Reagent was prepared in advance, added to the well and incubated 10 min.
Luminescence of the extracellular Calreticulin-HiBiT was quantified using the Spark 20M spectrofluorimeter (TECAN).

[2] = system: HMGB1; assay: HMGB1 release screen, Nano-Glo HiBiT extracellular detection; assay type: cell-based; settings: Homo sapiens, MDA-MB-231, MDA-MB-231 cells stably expressing HMGB1-HiBiT; extracellular luminescence
Protocol: Construction of pBiT3.1-HMGB1 Plasmid
as §1, with “HMGB1” for “Construction of pBiT3.1-Calreticulin Plasmid Calreticulin”, “pCMV6-AC-GFP” for “pCMV6-AC”, “RG205918,” for “SC320287,”, “1:” for “3:”, “2:” for “4:”, “(pBiT3.1-HMGB1)” for “(pBiT3.1-Calreticulin)”
Construction of HMGB1 Reporter Cell Line
as §2, with “pBiT3.1-HMGB1” for “pBiT3.1-Calreticulin”
Screen for HMGB1-Releasing Drugs
as §3, with “HMGB1-HiBiT” for “Calreticulin-HiBiT”, “HMGB1” for “Calreticulin”, “min. Luminescence of the extracellular HMGB1-HiBiT was quantified using the Spark 20M spectrofluorimeter (TECAN)” for “min.”

Row | EC50 [1] | EC50 [2] | Structure (SMILES)
1 | 4410 nM | 7510 nM | O=c1[nH]c(CN2CCc3ccccc3C2)nc2ccc(Cl)cc12 [Ex. #59, 6-chloro-2-(3,4-dihydro-1H-isoquinolin-2-ylmethyl)-3H-quinazolin-4-one]
2 | 3860 nM | 4260 nM | CN1CCCN(Cc2nc3ccc(Cl)cc3c(=O)[nH]2)c2ccccc21 [Ex. #63, 6-chloro-2-[(1-methyl-3,4-dihydro-2H-1,5-benzodiazepin-5-yl)methyl]-3H-quinazolin-4-one]
3 | 2460 nM | 5310 nM | O=c1[nH]c(CN2CCCOc3ccccc32)nc2ccc(Cl)cc12 [Ex. #64, 6-chloro-2-(3,4-dihydro-2H-1,5-benzoxazepin-5-ylmethyl)-3H-quinazolin-4-one]
4 | 1380 nM | 1170 nM | O=c1[nH]c(CN2CCc3ccccc32)nc2ccc(OC(F)(F)F)cc12 [Ex. #82, 2-(indolin-1-ylmethyl)-6-(trifluoromethoxy)-3H-quinazolin-4-one]
5 | 695 nM | 2630 nM | Cc1ccc2nc(CN3CCc4ccccc43)[nH]c(=O)c2c1 [Ex. #84, 2-(indolin-1-ylmethyl)-6-methyl-3H-quinazolin-4-one]
6 | 1960 nM | 3560 nM | O=c1[nH]c(CN2CCc3ccccc32)nc2ccc(C(F)(F)F)cc12 [Ex. #85, 2-(indolin-1-ylmethyl)-6-(trifluoromethyl)-3H-quinazolin-4-one]
7 | 2560 nM | 3860 nM | COc1ccc2c(=O)[nH]c(CN3CCc4ccccc43)nc2c1 [Ex. #86, 2-(indolin-1-ylmethyl)-7-methoxy-3H-quinazolin-4-one]
8 | 2160 nM | 3960 nM | CC(C)Oc1ccc2nc(CN3CCc4ccccc43)[nH]c(=O)c2c1 [Ex. #87, 2-(indolin-1-ylmethyl)-6-isopropoxy-3H-quinazolin-4-one]
9 | 8260 nM | 6260 nM | O=c1[nH]c(CN2CCc3ccccc32)nc2cc(Cl)ccc12 [Ex. #89, 7-chloro-2-(indolin-1-ylmethyl)-3H-quinazolin-4-one]
10 | 8110 nM | 10100 nM | O=c1[nH]c(CN2CCc3ccccc32)nc2cc(C(F)(F)F)ccc12 [Ex. #91, 2-(indolin-1-ylmethyl)-7-(trifluoromethyl)-3H-quinazolin-4-one]
11 | 97.5 nM | 97.5 nM | O=c1[nH]c(CN2CCc3ccccc32)nc2ccc(C3CC3)cc12 [Ex. #99, 6-cyclopropyl-2-(indolin-1-ylmethyl)-3H-quinazolin-4-one]
12 | 595 nM | 1370 nM | O=c1[nH]c(CN2CCc3ccccc32)nc2ccc(N3CCCC3)cc12 [Ex. #102, 2-(indolin-1-ylmethyl)-6-pyrrolidin-1-yl-3H-quinazolin-4-one]
13 | 2160 nM | 3460 nM | O=c1[nH]c(CN2CCc3ccccc32)nc2ccc(N3CCC(CO)C3)cc12 (stereo not shown) [Ex. #104, 6-[3-(hydroxymethyl)pyrrolidin-1-yl]-2-(indolin-1-ylmethyl)-3H-quinazolin-4-one]
14 | 8460 nM | 11100 nM | O=c1[nH]c(CN2CCc3ccccc32)nc2ccc(N3CCCCC3)cc12 [Ex. #106, 2-(indolin-1-ylmethyl)-6-(1-piperidyl)-3H-quinazolin-4-one]
15 | 4610 nM | 7860 nM | CC(c1nc2ccc(Cl)cc2c(=O)[nH]1)N1CCc2ccccc21 (stereo not shown) [Ex. #120, 6-chloro-2-(1-indolin-1-ylethyl)-3H-quinazolin-4-one]
16 | 3610 nM | 13100 nM | COc1ccc2nc(CN3Cc4ccccc4C(O)C3)[nH]c(=O)c2c1 (stereo not shown) [Ex. #123, 2-[(4-hydroxy-3,4-dihydro-1H-isoquinolin-2-yl)methyl]-6-methoxy-3H-quinazolin-4-one]
17 | 2160 nM | 13500 nM | COc1ccc2nc(CN3CCc4c(F)cccc4C3)[nH]c(=O)c2c1 [Ex. #124, 2-[(5-fluoro-3,4-dihydro-1H-isoquinolin-2-yl)methyl]-6-methoxy-3H-quinazolin-4-one]
18 | 6960 nM | 13400 nM | Cc1ccc2c(c1)N(Cc1nc3ccc(Cl)cc3c(=O)[nH]1)CCC2 [Ex. #127, 6-chloro-2-[(7-methyl-3,4-dihydro-2H-quinolin-1-yl)methyl]-3H-quinazolin-4-one]

The remaining lines, values behind:

Row | Structure (SMILES) | EC50 [1] | EC50 [2]
19 | Cc1ccc2c(c1)CN(Cc1nc3ccc(Cl)cc3c(=O)[nH]1)CC2 [Ex. #60, 6-chloro-2-[(7-methyl-3,4-dihydro-1H-isoquinolin-2-yl)methyl]-3H-quinazolin-4-one] | 870 nM | 9360 nM
20 | COc1ccc(OC)c2c1CN(Cc1nc3ccc(Cl)cc3c(=O)[nH]1)CC2O (stereo not shown) [Ex. #61, 6-chloro-2-[(4-hydroxy-5,8-dimethoxy-3,4-dihydro-1H-isoquinolin-2-yl)methyl]-3H-quinazolin-4-one] | 450 nM | 3860 nM
21 | O=c1[nH]c(CN2CCCCc3ccccc32)nc2ccc(Cl)cc12 [Ex. #62, 6-chloro-2-(2,3,4,5-tetrahydro-1-benzazepin-1-ylmethyl)-3H-quinazolin-4-one] | 960 nM | 1060 nM
22 | CN(C)c1ccc2nc(CN3CCc4ccccc43)[nH]c(=O)c2c1 [Ex. #73, 6-(dimethylamino)-2-(indolin-1-ylmethyl)-3H-quinazolin-4-one] | 253 nM | 275 nM
23 | CN(C)c1ccc2nc(CN3CC(C)(C)c4ccccc43)[nH]c(=O)c2c1 [Ex. #74, 6-(dimethylamino)-2-[(3,3-dimethylindolin-1-yl)methyl]-3H-quinazolin-4-one] | 200 nM | 210 nM
24 | COc1cc2c(=O)[nH]c(CN3CCc4ccccc43)nc2cc1F [Ex. #76, 7-fluoro-2-(indolin-1-ylmethyl)-6-methoxy-3H-quinazolin-4-one] | 292 nM | 594 nM
25 | COc1cc2nc(CN3CCc4ccccc43)[nH]c(=O)c2cc1OC [Ex. #83, 2-(indolin-1-ylmethyl)-6,7-dimethoxy-3H-quinazolin-4-one] | 1610 nM | 1440 nM
26 | COc1cc2c(=O)[nH]c(CN3CC(C)(C)c4ccccc43)nc2cc1Cl [Ex. #93, 7-chloro-2-[(3,3-dimethylindolin-1-yl)methyl]-6-methoxy-3H-quinazolin-4-one] | 97.5 nM | 150 nM
27 | COc1cc(OC)c2nc(CN3CC(C)(C)c4ccccc43)[nH]c(=O)c2c1 [Ex. #94, 2-[(3,3-dimethylindolin-1-yl)methyl]-6,8-dimethoxy-3H-quinazolin-4-one] | 3060 nM | 5760 nM
28 | COCCOc1ccc2nc(CN3CC(C)(C)c4ccccc43)[nH]c(=O)c2c1 [Ex. #97, 2-[(3,3-dimethylindolin-1-yl)methyl]-6-(2-methoxyethoxy)-3H-quinazolin-4-one] | 7360 nM | 7560 nM
29 | O=c1[nH]c(CN2CCc3ccccc32)nc2ccc(N3CCC3)cc12 [Ex. #100, 6-(azetidin-1-yl)-2-(indolin-1-ylmethyl)-3H-quinazolin-4-one] | 230 nM | 250 nM
30 | COC1CN(c2ccc3nc(CN4CCc5ccccc54)[nH]c(=O)c3c2)C1 [Ex. #101, 2-(indolin-1-ylmethyl)-6-(3-methoxyazetidin-1-yl)-3H-quinazolin-4-one] | 10000 nM | 10200 nM
31 | COCC1CCN(c2ccc3nc(CN4CCc5ccccc54)[nH]c(=O)c3c2)C1 (stereo not shown) [Ex. #103, 2-(indolin-1-ylmethyl)-6-[3-(methoxymethyl)pyrrolidin-1-yl]-3H-quinazolin-4-one] | 518 nM | 858 nM
32 | O=c1[nH]c(CN2CCc3ccccc32)nc2ccc(N3CCC(O)C3)cc12 (stereo not shown) [Ex. #105, 6-(3-hydroxypyrrolidin-1-yl)-2-(indolin-1-ylmethyl)-3H-quinazolin-4-one] | 9160 nM | 11700 nM

Source: patent US20230150978A1, “QUINAZOLINONE DERIVATIVES AND USES THEREOF FOR TREATING A CANCER” (ENYO PHARMA, priority 2020, published 2023)
